ChEMBL document CHEMBL1201862, “PubChem BioAssay data set” (2004)
Active and inactive are the calls of the source.

Experiments:
[1] = Luminescence Cell-Based Dose Confirmation HTS to Identify Inhibitors of Polyadenylation.; format: functional
[2] = target: Oxytocin receptor (Homo sapiens, UniProt P30559); assay: Counterscreen for vasopressin 1 receptor (V1R) agonists: Fluorescence-based cell-based high throughput dose response assay for agonists of the Oxytocin Receptor (OXTR). [Related pubchem assays: 2435 (Primary screen (OXTR agonists in singlicate)), 434964 (Confirmation screen (V1R agonists in triplicate)), 434969 (Counterscreen (OXTR agonists in …; format: functional
[3] = target: Vasopressin V1a receptor (Homo sapiens, UniProt P37288); assay: Fluorescence-based cell-based high throughput dose response screening assay for agonists of the vasopressin 1 receptor (V1R).; format: functional
Vasopressin V1a receptor, sequence (P37288 whole entry): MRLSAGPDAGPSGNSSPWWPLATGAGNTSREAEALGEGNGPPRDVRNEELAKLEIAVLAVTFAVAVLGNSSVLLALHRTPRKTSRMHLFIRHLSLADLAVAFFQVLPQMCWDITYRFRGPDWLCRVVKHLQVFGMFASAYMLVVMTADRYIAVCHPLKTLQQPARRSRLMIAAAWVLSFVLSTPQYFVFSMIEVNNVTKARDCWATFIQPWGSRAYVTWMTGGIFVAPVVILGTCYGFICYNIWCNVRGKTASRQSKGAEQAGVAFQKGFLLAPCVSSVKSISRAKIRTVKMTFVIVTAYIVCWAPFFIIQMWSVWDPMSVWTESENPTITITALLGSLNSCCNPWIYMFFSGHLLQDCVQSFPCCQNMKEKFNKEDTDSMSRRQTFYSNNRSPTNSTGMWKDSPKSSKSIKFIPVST

[4] = target: Glyceraldehyde-3-phosphate dehydrogenase (Homo sapiens, UniProt P04406)
Glyceraldehyde-3-phosphate dehydrogenase, sequence (P04406 whole entry): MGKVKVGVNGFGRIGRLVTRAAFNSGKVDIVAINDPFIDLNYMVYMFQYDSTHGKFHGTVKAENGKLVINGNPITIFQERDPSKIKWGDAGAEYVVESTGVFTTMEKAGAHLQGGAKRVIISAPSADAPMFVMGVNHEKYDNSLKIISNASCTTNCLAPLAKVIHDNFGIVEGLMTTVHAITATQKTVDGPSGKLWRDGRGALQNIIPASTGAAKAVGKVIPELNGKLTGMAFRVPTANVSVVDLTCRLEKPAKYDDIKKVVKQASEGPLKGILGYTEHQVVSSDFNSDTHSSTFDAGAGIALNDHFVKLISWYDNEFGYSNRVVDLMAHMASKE

[5] = target: T1, Bcl-2-related protein A1 (Mus musculus, UniProt Q07440); assay: small-molecule antagonists of Bfl-1/BH3 interaction – biochemical, TR-FRET, mouse Bfl-1, confirmation (AID 621);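 note: TR-FRET binding of GST-Bfl-1 to FITC-labelled Bid peptide via terbium antibody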
T1 sequence (Q07440 whole entry): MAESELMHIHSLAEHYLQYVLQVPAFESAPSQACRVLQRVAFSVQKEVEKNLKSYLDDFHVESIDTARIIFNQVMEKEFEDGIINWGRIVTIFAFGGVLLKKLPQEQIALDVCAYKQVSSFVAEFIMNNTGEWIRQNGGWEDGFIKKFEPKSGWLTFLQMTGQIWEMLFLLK

[6] = target: T1, Bcl-2-related protein A1; assay: Bfl-1 binding inhibitors, SAR follow-up, biochemical, fluorescence polarization (AID 1070)
[7] = target: Neuropeptide Y receptor type 1 (Homo sapiens, UniProt P25929); format: functional;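 note: HEK293 cells with a CNG channel challenged with NPY then isoproterenol; potency as antagonist that reverses NPY suppression of cAMP signal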
Neuropeptide Y receptor type 1, sequence (P25929 whole entry): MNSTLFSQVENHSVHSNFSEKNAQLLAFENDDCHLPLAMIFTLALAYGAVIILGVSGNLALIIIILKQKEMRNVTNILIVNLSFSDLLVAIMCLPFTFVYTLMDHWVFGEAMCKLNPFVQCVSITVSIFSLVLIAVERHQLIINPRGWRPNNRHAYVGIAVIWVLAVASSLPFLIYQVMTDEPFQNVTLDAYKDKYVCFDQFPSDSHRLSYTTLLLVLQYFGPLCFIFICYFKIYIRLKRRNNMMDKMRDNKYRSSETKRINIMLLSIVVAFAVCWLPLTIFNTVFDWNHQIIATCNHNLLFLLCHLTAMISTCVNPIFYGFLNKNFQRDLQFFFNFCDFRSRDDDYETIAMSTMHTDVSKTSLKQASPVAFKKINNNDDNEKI

[8] = Trypanosoma cruzi growth suppression in host cells – NIH3T3 host cells, beta-gal luminescence, confirmation (AID 2044); format: functional, cell-based;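 note: intracellular parasites grown in NIH/3T3 mouse fibroblasts as host cells; luminescent beta-galactosidase reporter signal from transgenic T. cruzi replicating inside host cells; inhibitors lower the luminescence signal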
[9] = target: Neuropeptide Y receptor type 2 (Homo sapiens, UniProt P49146); format: functional, cell-based;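 note: HEK293 cells expressing the receptor and a CNG channel; stimulus was NPY near EC95 followed by isoproterenol to raise cAMP; antagonist potency measured as restoring cAMP signal that NPY suppresses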
Neuropeptide Y receptor type 2, sequence (P49146 whole entry): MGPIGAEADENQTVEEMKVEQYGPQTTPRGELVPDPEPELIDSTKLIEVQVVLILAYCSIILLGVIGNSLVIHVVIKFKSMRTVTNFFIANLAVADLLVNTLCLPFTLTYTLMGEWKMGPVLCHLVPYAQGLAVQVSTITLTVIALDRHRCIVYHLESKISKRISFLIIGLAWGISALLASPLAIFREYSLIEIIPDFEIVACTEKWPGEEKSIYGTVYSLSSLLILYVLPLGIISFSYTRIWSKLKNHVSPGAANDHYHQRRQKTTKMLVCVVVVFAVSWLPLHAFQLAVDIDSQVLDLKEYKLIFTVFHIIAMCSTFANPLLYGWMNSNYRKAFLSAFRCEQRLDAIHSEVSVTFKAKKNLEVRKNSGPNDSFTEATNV

[10] = NIH3T3 cell viability loss – ATP luminescence, mouse fibroblasts, counter-screen, dose response (AID 2010); format: functional, cell-based;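 note: cells exposed to compound for about 90 hours before reading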
[11] = target: T2, RNA-binding protein pos-1 (Caenorhabditis elegans, UniProt G5EF15); assay: disruptors of C. elegans POS-1 RNA interaction – biochemical, fluorescence polarization, dose response (AID 1964);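 note: purified POS-1 fused to maltose binding protein made in E. coli; potency of compounds blocking POS-1 binding to fluorescent RNA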
T2 sequence (G5EF15 whole entry): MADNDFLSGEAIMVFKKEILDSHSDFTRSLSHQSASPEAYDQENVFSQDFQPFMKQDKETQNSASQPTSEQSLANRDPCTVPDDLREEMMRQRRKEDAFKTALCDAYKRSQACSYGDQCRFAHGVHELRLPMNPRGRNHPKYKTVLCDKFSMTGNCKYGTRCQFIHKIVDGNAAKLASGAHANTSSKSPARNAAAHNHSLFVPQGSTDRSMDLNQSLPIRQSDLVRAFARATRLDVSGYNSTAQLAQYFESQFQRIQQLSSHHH

[12] = target: T3, Zinc finger protein mex-5 (Caenorhabditis elegans, UniProt Q9XUB2); assay: potency of MEX-5 RNA-binding blockers – biochemical, C. elegans, fluorescence polarization, dose response (AID 1960)
T3 sequence (Q9XUB2 whole entry): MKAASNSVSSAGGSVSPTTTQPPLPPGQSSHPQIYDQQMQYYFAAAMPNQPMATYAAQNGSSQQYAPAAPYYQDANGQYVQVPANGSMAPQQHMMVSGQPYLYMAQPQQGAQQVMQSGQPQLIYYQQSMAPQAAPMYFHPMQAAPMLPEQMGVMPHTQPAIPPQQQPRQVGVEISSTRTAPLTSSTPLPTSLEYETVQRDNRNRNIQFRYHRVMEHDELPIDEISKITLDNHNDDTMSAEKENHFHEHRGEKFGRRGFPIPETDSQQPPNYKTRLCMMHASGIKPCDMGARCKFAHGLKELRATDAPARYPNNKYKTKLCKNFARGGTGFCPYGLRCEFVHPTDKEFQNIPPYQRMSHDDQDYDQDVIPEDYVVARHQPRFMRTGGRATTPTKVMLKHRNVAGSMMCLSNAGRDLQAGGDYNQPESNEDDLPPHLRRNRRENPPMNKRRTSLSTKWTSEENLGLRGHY

[13] = target: T4, Bifunctional protein GlmU (Mycobacterium tuberculosis, UniProt P9WMN3); assay: Inhibitors of Mycobacterial Glucosamine-1-phosphate acetyl transferase (GlmU). Secondary screen.; design: species or system Mycobacterium tuberculosis H37Rv
T4 sequence (P9WMN3 whole entry): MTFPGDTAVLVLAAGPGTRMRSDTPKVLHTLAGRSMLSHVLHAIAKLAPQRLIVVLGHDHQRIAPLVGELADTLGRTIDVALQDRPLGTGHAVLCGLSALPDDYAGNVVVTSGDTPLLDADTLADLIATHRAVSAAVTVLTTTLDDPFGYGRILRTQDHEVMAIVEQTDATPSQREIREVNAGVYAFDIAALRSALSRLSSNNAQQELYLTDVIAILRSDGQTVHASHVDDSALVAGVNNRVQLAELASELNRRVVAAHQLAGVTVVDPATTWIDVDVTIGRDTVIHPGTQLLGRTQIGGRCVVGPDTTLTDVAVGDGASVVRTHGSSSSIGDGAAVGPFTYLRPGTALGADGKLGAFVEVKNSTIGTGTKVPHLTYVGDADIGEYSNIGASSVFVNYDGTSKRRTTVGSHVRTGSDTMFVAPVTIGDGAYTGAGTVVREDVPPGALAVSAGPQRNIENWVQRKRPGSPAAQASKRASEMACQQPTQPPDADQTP

[14] = antiviral protection against BTV-induced cell death – arbovirus, BSR cells, confirmation (AID 1250); format: functional;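 note: protection from viral cytopathic effect measured as cell viability by ATP luminescence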
[15] = target: Heat shock protein HSP 90-alpha (Homo sapiens, UniProt P07900); format: functional, organism-based
[16] = target: T5, Estrogen receptor (Homo sapiens, UniProt P03372);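 note: potency for inhibiting coactivator peptide recruitment to the receptor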
T5 sequence (P03372 whole entry): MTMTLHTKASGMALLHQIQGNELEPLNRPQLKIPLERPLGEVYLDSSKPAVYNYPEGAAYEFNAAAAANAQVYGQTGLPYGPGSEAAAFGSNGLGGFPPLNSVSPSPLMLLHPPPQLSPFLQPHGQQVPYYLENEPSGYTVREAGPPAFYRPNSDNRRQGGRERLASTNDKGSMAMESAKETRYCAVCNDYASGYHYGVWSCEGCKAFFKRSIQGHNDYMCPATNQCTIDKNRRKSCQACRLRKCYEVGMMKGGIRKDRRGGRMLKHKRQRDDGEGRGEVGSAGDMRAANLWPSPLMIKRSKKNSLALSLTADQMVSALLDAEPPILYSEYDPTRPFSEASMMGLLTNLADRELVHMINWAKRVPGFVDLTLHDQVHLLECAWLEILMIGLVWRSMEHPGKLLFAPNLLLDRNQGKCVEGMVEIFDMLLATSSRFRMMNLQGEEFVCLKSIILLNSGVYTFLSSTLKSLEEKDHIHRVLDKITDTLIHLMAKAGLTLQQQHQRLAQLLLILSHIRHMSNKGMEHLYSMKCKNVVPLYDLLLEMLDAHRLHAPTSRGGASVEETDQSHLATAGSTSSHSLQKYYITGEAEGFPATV

[17] = target: T6, Estrogen receptor beta (Homo sapiens, UniProt Q92731);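 note: recombinant ER-beta bound to coactivator SRC1 peptide in presence of estradiol agonist; inhibitors block coactivator peptide binding and lower the FRET signal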
T6 sequence (Q92731 whole entry): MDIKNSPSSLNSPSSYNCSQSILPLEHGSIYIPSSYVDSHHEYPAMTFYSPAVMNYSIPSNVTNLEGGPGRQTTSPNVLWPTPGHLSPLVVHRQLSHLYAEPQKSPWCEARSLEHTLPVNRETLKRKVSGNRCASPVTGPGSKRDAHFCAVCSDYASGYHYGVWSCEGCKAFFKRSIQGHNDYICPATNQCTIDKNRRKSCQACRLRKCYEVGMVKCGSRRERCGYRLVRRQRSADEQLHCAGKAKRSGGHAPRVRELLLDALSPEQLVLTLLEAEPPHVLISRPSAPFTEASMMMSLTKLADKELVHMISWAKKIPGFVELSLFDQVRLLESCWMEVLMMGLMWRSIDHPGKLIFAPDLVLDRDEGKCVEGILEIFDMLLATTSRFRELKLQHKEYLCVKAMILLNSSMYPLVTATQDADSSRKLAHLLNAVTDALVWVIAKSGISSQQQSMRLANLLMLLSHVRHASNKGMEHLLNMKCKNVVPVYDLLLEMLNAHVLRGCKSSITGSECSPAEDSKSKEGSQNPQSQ

[18] = target: T6, Estrogen receptor beta; assay: blockers of SRC-3 recruitment to ERβ – biochemical, ELISA, streptavidin-HRP readout, orthogonal assay, confirmation (AID 1060)
[19] = target: Calpain-2 catalytic subunit (Sus scrofa, UniProt P43367); assay: m-calpain protease blockers, concentration series – biochemical, fluorogenic peptide substrate, dose response (AID 1420); format: functional
Calpain-2 catalytic subunit, sequence (P43367 whole entry): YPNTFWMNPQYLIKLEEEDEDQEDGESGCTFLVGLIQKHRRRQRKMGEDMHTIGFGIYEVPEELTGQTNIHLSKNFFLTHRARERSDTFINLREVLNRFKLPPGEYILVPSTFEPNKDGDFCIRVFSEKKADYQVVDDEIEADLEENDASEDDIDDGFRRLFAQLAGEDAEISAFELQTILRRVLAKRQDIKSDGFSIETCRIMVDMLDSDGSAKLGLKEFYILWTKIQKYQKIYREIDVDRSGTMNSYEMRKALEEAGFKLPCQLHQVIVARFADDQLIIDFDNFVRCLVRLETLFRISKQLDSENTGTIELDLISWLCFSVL

[20] = target: NADPH oxidase 1 (Homo sapiens, UniProt Q9Y5S8); format: functional, cell-based;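 note: Cell-based assay with luminescence read-out, IC50 derived from inhibitor dose-response curves; intracellular ROS from endogenous NOX1 in intact HT29 colon cancer cells; potency of inhibitors that lower the ROS luminescence signal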
NADPH oxidase 1, sequence (Q9Y5S8 whole entry): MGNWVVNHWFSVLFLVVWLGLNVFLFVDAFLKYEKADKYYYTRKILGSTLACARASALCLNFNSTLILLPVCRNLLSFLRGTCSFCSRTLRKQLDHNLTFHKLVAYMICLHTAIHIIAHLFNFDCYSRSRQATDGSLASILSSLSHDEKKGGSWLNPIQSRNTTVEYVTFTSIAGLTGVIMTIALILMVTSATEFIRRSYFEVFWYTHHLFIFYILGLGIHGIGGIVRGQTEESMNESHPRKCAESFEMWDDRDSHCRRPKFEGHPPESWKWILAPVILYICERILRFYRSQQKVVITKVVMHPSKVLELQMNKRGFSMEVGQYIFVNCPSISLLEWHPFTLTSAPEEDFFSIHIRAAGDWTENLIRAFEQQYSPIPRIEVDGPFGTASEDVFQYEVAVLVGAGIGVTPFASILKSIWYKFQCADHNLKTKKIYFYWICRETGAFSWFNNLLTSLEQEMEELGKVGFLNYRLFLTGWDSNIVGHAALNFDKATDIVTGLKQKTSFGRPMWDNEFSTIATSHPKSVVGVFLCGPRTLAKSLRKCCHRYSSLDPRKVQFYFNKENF

[21] = target: Peroxisome proliferator-activated receptor gamma/Nuclear receptor corepressor 2 (Homo sapiens, UniProt P37231+Q9Y618); assay: Counterscreen for NR2E3 inverse agonists: TR-FRET-based biochemical high throughput dose response assay to identify inverse agonists of the interaction between peroxisome proliferator-activated receptor gamma (PPARg) and nuclear receptor co-repressor 2 (NCOR2).; format: functional
[22] = target: Photoreceptor-specific nuclear receptor (Homo sapiens, UniProt Q9Y5X4); assay: ligands suppressing NR2E3 nuclear receptor activity – biochemical, TR-FRET, dose response (AID 463256); format: functional
Photoreceptor-specific nuclear receptor, sequence (Q9Y5X4 whole entry): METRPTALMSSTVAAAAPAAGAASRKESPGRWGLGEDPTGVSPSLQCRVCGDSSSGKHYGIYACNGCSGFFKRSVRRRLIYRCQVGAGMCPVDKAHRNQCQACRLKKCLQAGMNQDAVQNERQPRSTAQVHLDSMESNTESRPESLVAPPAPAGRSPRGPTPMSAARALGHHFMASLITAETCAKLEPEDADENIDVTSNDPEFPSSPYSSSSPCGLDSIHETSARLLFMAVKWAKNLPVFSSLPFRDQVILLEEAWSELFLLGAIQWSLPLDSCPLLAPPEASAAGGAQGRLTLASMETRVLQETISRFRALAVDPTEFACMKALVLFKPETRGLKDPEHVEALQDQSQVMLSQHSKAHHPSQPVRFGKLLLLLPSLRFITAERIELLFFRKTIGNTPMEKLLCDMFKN

[23] = target: Cytochrome P450 2C19 (Homo sapiens, UniProt P33261); assay: qHTS Assay for Inhibitors and Substrates of Cytochrome P450 2C19. [Related pubchem assays: 410 ]; format: ADME; conditions: read-out: Potency
Cytochrome P450 2C19, sequence (P33261 whole entry): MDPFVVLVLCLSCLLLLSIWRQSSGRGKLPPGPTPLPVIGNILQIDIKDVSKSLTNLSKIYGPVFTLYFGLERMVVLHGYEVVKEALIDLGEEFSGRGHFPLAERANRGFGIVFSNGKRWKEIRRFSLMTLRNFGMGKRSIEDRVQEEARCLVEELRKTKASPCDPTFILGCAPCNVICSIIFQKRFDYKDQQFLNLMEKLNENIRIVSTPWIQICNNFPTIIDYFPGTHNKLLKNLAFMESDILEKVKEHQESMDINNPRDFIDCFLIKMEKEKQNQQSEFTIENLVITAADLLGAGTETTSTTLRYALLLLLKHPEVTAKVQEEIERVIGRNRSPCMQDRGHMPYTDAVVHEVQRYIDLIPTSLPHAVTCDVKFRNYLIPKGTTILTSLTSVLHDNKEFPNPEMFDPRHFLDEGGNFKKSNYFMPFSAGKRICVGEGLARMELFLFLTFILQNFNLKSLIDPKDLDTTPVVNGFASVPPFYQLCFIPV

[24] = target: Cytochrome P450 2D6 (Homo sapiens, UniProt P10635); assay: qHTS Assay for Inhibitors and Substrates of Cytochrome P450 2D6. [Related pubchem assays: 410 ]; format: ADME; conditions: read-out: Potency
Cytochrome P450 2D6, sequence (P10635 whole entry): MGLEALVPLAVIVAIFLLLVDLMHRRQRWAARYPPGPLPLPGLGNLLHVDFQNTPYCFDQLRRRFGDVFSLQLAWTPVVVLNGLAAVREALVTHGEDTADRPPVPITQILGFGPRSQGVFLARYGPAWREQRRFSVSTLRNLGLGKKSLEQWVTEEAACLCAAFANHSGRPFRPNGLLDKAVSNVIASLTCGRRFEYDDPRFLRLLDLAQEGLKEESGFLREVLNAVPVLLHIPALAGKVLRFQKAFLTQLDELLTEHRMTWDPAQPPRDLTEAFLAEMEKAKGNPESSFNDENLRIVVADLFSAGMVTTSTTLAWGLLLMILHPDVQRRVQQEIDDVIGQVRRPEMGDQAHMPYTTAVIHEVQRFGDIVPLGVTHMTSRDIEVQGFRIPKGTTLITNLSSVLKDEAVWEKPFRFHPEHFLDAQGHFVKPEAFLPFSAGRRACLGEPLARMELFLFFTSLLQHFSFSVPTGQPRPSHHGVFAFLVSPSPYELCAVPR

[25] = Luminescent dose response cell-based high throughput screening assay for inhibitors of the Janus kinase 2 mutant JAK2V617F. [Related pubchem assays: 1446 (Primary screen.), 1521 (Confirmation assay.), 1486 (Counter screen.)]; format: functional
[26] = system: HEK293; assay: inhibition of NOD1-driven NF-kB reporter – cell-based, luminescence, uHTS, primary screen (AID 1578); format: functional; conditions: Homo sapiens
[27] = system: BJ; assay: BJ-TERT fibroblast viability loss – cell-based, RAS-independent, luminescence, dose response (AID 1933); format: functional; conditions: Homo sapiens
[28] = system: HEK293; assay: cells; format: functional, cell-based; conditions: Homo sapiens
[29] = system: BJ; assay: cells; format: functional, cell-based; conditions: Homo sapiens, read-out: EC50
[30] = system: HEK293; assay: cells; format: functional, cell-based; conditions: Homo sapiens; remark: listed apart in the source
[31] = system: HEK293; assay: NOD2 signaling inhibitors in MDP-stimulated cells, cell-based, uHTS, luminescence (AID 2001); format: functional; conditions: Homo sapiens
[32] = system: BJ; assay: BJ-TERT-LT-ST fibroblast viability loss – cell-based, RAS-independent, luminescence, dose response (AID 1935); format: functional; conditions: Homo sapiens;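 note: BJ fibroblasts immortalized with TERT plus LT and ST oncogenes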
[33] = DRD fibroblast viability loss – cell-based, non-viral oncogenic, luminescence, dose response (AID 1934); format: functional; conditions: Homo sapiens
[34] = target: Tumor necrosis factor (Homo sapiens, UniProt P01375); assay: analog potency on TNFa NF-kB signaling – cell-based, revised, SAR follow-up (AID 2337); format: functional
Tumor necrosis factor, sequence (P01375 whole entry, the tested form may be a part): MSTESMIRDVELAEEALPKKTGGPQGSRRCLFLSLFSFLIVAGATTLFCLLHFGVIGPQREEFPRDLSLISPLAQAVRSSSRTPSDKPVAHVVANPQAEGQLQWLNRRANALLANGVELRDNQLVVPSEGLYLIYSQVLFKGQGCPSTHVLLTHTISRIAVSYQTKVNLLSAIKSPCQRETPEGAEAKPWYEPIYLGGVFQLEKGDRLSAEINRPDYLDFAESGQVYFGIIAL

[35] = target: T7, Nucleotide-binding oligomerization domain-containing protein 1 (Homo sapiens, UniProt Q9Y239); assay: blockers of NOD1 pathway activity – revised, SAR follow-up (AID 2333); format: functional
T7 sequence (Q9Y239 whole entry): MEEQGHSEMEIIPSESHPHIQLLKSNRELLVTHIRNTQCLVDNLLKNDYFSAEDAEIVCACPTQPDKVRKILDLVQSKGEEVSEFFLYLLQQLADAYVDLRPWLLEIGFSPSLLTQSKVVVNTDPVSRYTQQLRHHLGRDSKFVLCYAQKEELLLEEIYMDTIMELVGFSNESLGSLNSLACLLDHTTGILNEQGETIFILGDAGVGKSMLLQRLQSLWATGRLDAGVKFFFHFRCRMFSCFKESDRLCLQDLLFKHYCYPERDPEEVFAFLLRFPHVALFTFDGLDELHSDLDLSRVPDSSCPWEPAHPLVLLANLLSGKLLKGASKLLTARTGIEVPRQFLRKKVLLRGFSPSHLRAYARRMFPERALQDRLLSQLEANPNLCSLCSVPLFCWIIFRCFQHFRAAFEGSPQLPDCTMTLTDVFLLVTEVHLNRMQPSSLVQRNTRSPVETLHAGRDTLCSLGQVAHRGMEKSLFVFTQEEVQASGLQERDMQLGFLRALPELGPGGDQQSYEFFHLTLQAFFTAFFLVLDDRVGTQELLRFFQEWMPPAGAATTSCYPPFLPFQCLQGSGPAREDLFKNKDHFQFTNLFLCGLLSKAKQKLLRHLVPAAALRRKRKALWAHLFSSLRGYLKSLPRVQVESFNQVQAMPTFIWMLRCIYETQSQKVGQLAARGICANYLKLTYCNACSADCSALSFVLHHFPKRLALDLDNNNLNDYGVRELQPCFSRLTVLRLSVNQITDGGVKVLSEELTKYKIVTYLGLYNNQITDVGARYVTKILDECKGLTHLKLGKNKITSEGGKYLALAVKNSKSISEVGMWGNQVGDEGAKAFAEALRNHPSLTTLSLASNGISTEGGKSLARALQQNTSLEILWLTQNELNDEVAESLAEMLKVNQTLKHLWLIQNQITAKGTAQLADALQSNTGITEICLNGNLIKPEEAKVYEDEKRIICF

[36] = system: BJ; assay: growth inhibition of engineered Ras-driven BJ cells – cell-based, alamar blue fluorescence, cherrypicked samples, dose response (AID 2631); format: functional; conditions: Homo sapiens;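 note: confirmatory dose-response assay in RAS-dependent BJ fibroblasts engineered with TERT, LT and ST, with cytotoxicity read by fluorescence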
[37] = system: Vero; assay: cells; format: functional; conditions: Chlorocebus sabaeus
[38] = system: HEK293; assay: cells; conditions: Homo sapiens

COc1ccccc1N1CCN(C(=O)CCNS(=O)(=O)c2ccc(Br)s2)CC1
EC50 [1]: > 120 µM (not active)

CCN(CC)c1ccc2cc(C(N)=O)/c(=N\NC(=O)c3ccncc3)oc2c1
EC50 [2]: 21.8 µM (not active)
EC50 [3]: 18.6 µM (not active)

COc1cccc(-c2cc(C(F)(F)F)nc(S(C)(=O)=O)n2)c1
IC50 [4]: > 100 µM (not active)
IC50 [5]: 2.24 µM (active)
IC50 [6]: 6.78 µM (active)

Cc1ccccc1N1CCN(CCCOc2ccc3c(C)cc(=O)oc3c2)CC1
IC50 [7]: > 35 µM (not active)
EC50 [8]: 0.124 µM (active)
IC50 [9]: > 35 µM (not active)
EC50 [10]: 9.32 µM (active)

Cc1cc(/C=c2\sc3nc4ccccc4n3c2=O)c(C)n1-c1ccc(C(=O)O)cc1
EC50 [11]: > 300 µM (not active)
EC50 [12]: > 300 µM (not active)
IC50 [13]: 171 µM (active)
IC50 [14]: 25.8 µM (active)
AC50 [15]: 24.5 µM (active)

Cc1ccc(OCc2ccoc2C(=O)O)cc1C
IC50 [16]: 25.4 µM (active)
IC50 [17]: 5.86 µM (active)
IC50 [18]: < 0.023 µM (not active)

C=CCNC(=S)N/N=C/c1cccc([N+](=O)[O-])c1
IC50 [19]: 6.63 µM (active)

COc1ccc(/C=N/Nc2c(Cl)cncc2Cl)c(OC)c1OC
IC50 [20]: > 17 µM (not active)

Cc1ccc2oc(=O)cc(CN3CCCCC3)c2c1
IC50 [21]: > 39.8 µM (not active)
IC50 [22]: 7.54 µM (active)

COC(=O)NC(/C(C(=O)OC)=C(\C)NCc1ccccc1)c1cccc(F)c1 (stereo not drawn)
AC50 [23]: 7.94 µM (inconclusive)
AC50 [24]: 5.01 µM (inconclusive)

Cc1cccc(Nc2nc(N)nc(CCl)n2)c1C
IC50 [25]: 0.628 µM (active)
EC50 [26]: 10.8 µM (active)
EC50 [27]: 2.19 µM (inconclusive)
IC50 [28]: 9.12 µM (active)
EC50 [29]: 2.02 µM (active)
IC50 [30]: > 20 µM (inactive)
IC50 [31]: 9.47 µM (active)
EC50 [32]: > 75 µM (inconclusive)
EC50 [33]: 0.65 µM (active)
IC50 [34]: 9.45 µM (active)
IC50 [35]: 4.04 µM (active)
EC50 [36]: 6.44 µM (active)
CC50 [37]: 2.11 µM (active)
IC50 [38]: > 20 µM (inactive)
